Experimental data taken from patent US20100022483A1, “Substituted Tetracycline Compounds” (Paratek Pharmaceuticals, Inc., priority 2008, published 2010).
≈ marks a conversion by molar mass, not a printed value. Like-named read-outs stand apart in the source and are kept apart here.

How the values were obtained:
gram negative bacteria = test: In vitro anti-bacterial activity assay (broth dilution MIC), gram negative bacteria; format: cell-based, E. coli
In short: (§1)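 Broth dilution MIC following CLSI M7-A2: compounds serially diluted, log-phase test strains added to final ~5×10^5 CFU/ml, incubated ~18 hours at 35° C in ambient air. Plates read on microplate reader or visually; MIC is lowest concentration inhibiting growth.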

gram positive bacteria = test: In vitro anti-bacterial activity assay (broth dilution MIC), gram positive bacteria; format: cell-based, S. aureus; conditions: 18 h
In short: as §1

3T3 fibroblast cells = test: In vitro phototoxicity assay (neutral red; UV light-treated vs dark control plates); format: cell-based; conditions: for Photo Toxicity UV Tox50: UV light 50 minutes; for Photo Toxicity Dark Tox50: dark control plate
In short: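 Neutral red viability readout (A535 after EtOH/acetic acid extraction) compares paired plates: one exposed 50 min to UV at 1.6–1.8 mW/cm^2, one held in darkness, both dosed with compound in HBSS and recovered overnight. 3T3 fibroblast cells used; phototoxicity taken as the difference.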

[1] = Mammalian cytotoxicity assay (resazurin), COS-1 cells; format: cell-based; conditions: African green monkey, read-out: Cytotox. COS-1
In short: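 Cells seeded overnight at 37° C., 5% CO2, then exposed to serial compound dilutions for 24 hours. Medium replaced with resazurin (0.042 mg/ml in PBS with Ca and Mg) for 2 hours plus 30 minutes dark at room temperature; fluorescence read at ex 535/em 590 nm, IC50 taken as 50% growth inhibition.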

in vitro = format: cell-based; conditions: Chinese hamster, Cytotox. CHO-K1
[2] = Escherichia coli, 18 h, E. coli D1 209, read-out: Median MIC's G− E. coli D1 209
[3] = Escherichia coli, 18 h, E. coli MG 1655, read-out: Median MIC's G− E. coli MG 1655
[4] = Escherichia coli, ATCC25922, 18 h, E. coli ATCC 25922, read-out: Median MIC's G− E. coli ATCC 25922
[5] = Pseudomonas aeruginosa, 18 h, P. aeruginosa K201 PAO6609, read-out: Median MIC's G− P. aeruginosa K201 PAO6609
[6] = Staphylococcus aureus, S. aureus MRSA5, read-out: Median MIC's G+ S. aureus MRSA5
[7] = Staphylococcus aureus, S. aureus RN450, read-out: Median MIC's G+ S. aureus RN450
[8] = Streptococcus pneumoniae, S. pneumoniae 157E-Strep, read-out: Median MIC's G+ S. pneumoniae 157E-Strep

Compound	MIC (gram negative bacteria; [2]) [µg/mL]	MIC (gram negative bacteria; [3]) [µg/mL]	MIC (gram negative bacteria; [4]) [µg/mL]	MIC (gram negative bacteria; [5]) [µg/mL]	MIC (gram positive bacteria; [6]) [µg/mL]	MIC (gram positive bacteria; [7]) [µg/mL]	MIC (gram positive bacteria; [8]) [µg/mL]	Photo Toxicity UV Tox50 (3T3 fibroblast cells) [µM]	Photo Toxicity Dark Tox50 (3T3 fibroblast cells) [µM]	IC50 at 24 h [1] [µM]	IC50 at 24 h (in vitro) [µM]
CN1CCN(C(=O)c2cccc(-c3ccc(O)c4c3C[C@H]3C[C@H]5[C@H](N(C)C)C(O)=C(C(N)=O)C(=O)[C@@]5(O)C(O)=C3C4=O)c2)CC1 [C]	64 (≈ 104 µM)	32 (≈ 51.9 µM)	8 (≈ 13 µM)	64 (≈ 104 µM)	64 (≈ 104 µM)	0.25 (≈ 0.405 µM)	0.06 (≈ 0.0973 µM)	>137.76	>137.76	> 138	> 138
CN(C)[C@@H]1C(O)=C(C(N)=O)C(=O)[C@@]2(O)C(O)=C3C(=O)c4c(O)ccc(-c5cccc(C(=O)NCC[N+](C)(C)C)c5)c4C[C@H]3C[C@@H]12 [DA]	64	64	64	64	64	4	32	>123.61	>123.61	> 1.23	> 1.23
CN(C)[C@@H]1C(O)=C(C(N)=O)C(=O)[C@@]2(O)C(O)=C3C(=O)c4c(O)ccc(-c5cccc(C(=O)NCCN6CCOCC6)c5)c4CC3CC12 (stereo partly drawn) [DC]	64 (≈ 99 µM)	8 (≈ 12.4 µM)	16 (≈ 24.7 µM)	64 (≈ 99 µM)	4 (≈ 6.19 µM)	0.125 (≈ 0.193 µM)	0.125 (≈ 0.193 µM)	>136.18	>136.18	> 13.6	> 13.6
COCCCNC(=O)c1cccc(-c2ccc(O)c3c2CC2CC4[C@H](N(C)C)C(O)=C(C(N)=O)C(=O)[C@@]4(O)C(O)=C2C3=O)c1 (stereo partly drawn) [DD]	64 (≈ 106 µM)	64 (≈ 106 µM)	64 (≈ 106 µM)	64 (≈ 106 µM)	2 (≈ 3.3 µM)	0.0625 (≈ 0.103 µM)	0.06 (≈ 0.0991 µM)	>152.62	>152.62	> 15.3	> 15.3
COCCCOCCN(C)Cc1cccc(-c2ccc(O)c3c2C[C@H]2C[C@H]4[C@H](N(C)C)C(O)=C(C(N)=O)C(=O)[C@@]4(O)C(O)=C2C3=O)c1 [DE]	2 (≈ 3.08 µM)	8 (≈ 12.3 µM)	2 (≈ 3.08 µM)	64 (≈ 98.5 µM)	2 (≈ 3.08 µM)	0.06 (≈ 0.0923 µM)	0.06 (≈ 0.0923 µM)	>200	>200	> 20	> 20
COCCNC(=O)c1ccc(-c2ccc(O)c3c2C[C@H]2C[C@H]4[C@H](N(C)C)C(O)=C(C(N)=O)C(=O)[C@@]4(O)C(O)=C2C3=O)o1 [DF]	64 (≈ 110 µM)	32 (≈ 55 µM)	16 (≈ 27.5 µM)	64 (≈ 110 µM)	16 (≈ 27.5 µM)	0.0625 (≈ 0.107 µM)	0.06 (≈ 0.103 µM)	>200	>200	> 20	> 20
CN(C)[C@@H]1C(O)=C(C(N)=O)C(=O)[C@@]2(O)C(O)=C3C(=O)c4c(O)ccc(-c5cccc(CCCN)c5)c4C[C@H]3C[C@@H]12 [DG]	32 (≈ 58.4 µM)	32 (≈ 58.4 µM)	32 (≈ 58.4 µM)	64 (≈ 117 µM)	64 (≈ 117 µM)	0.5 (≈ 0.913 µM)	0.125 (≈ 0.228 µM)	64.8	>200	> 20	> 20
CN(C)CCCNC(=O)c1ccc(-c2ccc(O)c3c2C[C@H]2C[C@H]4[C@H](N(C)C)C(O)=C(C(N)=O)C(=O)[C@@]4(O)C(O)=C2C3=O)o1 [DH]	64 (≈ 105 µM)	64 (≈ 105 µM)	64 (≈ 105 µM)	64 (≈ 105 µM)	64 (≈ 105 µM)	4 (≈ 6.57 µM)	2 (≈ 3.29 µM)	>200	>200	> 200	> 200
CN(C)[C@@H]1C(O)=C(C(N)=O)C(=O)[C@@]2(O)C(O)=C3C(=O)c4c(O)ccc(-c5cccc(CCCN6CCCCC6)c5)c4C[C@H]3C[C@@H]12 [DI]	2 (≈ 3.25 µM)	4 (≈ 6.5 µM)	1 (≈ 1.62 µM)	64 (≈ 104 µM)	2 (≈ 3.25 µM)	0.0625 (≈ 0.102 µM)	0.06 (≈ 0.0974 µM)	45.65	>200	59.4	54.1
